According to ChEMBL document CHEMBL1833803, “Discovery of 1-amino-5H-pyrido[4,3-b]indol-4-carboxamide inhibitors of Janus kinase 2 (JAK2) for the treatment of myeloproliferative disorders” (J Med Chem, 2011):

Legend:
[1] = Selectivity ratio of IC50 for JAK3 to IC50 for JAK2
[2] = target: T1, Tyrosine-protein kinase JAK3 (Homo sapiens, UniProt P52333); experiment: Inhibition of JAK3 using biotin-EQEDEPEGDYFEWLE- NH2 as substrate
T1 sequence (P52333 whole entry): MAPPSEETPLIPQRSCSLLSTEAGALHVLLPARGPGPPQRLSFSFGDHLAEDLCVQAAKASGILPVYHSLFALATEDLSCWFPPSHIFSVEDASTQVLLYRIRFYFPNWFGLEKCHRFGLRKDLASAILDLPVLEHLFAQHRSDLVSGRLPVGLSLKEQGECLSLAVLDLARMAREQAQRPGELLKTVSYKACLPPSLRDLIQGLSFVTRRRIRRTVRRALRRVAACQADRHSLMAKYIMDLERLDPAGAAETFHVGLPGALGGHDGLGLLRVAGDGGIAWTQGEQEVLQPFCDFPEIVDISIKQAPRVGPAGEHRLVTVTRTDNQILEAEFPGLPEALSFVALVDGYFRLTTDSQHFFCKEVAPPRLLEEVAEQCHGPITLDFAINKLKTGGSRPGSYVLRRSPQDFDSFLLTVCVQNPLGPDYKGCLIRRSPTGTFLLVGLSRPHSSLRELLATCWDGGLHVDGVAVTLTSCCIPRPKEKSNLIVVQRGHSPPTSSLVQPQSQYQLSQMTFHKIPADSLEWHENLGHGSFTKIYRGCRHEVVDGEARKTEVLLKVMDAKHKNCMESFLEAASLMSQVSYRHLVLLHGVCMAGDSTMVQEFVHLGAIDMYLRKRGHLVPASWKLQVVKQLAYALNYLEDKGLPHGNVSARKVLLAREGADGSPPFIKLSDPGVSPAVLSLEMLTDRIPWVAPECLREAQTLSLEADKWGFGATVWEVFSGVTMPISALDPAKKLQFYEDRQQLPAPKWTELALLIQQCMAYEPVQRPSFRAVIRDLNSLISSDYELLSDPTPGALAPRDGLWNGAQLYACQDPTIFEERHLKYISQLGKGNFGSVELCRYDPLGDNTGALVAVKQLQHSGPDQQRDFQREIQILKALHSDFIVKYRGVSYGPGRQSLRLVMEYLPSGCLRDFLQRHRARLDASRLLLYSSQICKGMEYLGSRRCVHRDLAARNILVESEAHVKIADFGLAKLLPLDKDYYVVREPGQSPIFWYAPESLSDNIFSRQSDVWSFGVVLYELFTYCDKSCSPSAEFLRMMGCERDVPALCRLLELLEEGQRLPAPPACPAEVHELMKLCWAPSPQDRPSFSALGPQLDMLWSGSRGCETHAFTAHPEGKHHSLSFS

[3] = target: T2, Tyrosine-protein kinase JAK2 (Homo sapiens, UniProt O60674); experiment: Inhibition of JAK2 using biotin-EQEDEPEGDYFEWLE- NH2 as substrate
[4] = target: T2, Tyrosine-protein kinase JAK2; experiment: Inhibition of JAK2-mediated STAT5 phosphorylation in human HEL 92.1.7 irf1-bla cells; format: cell-based
[5] = Clearance in rat at 1 mg/kg, iv; format: ADME, organism-based; parameters: dose 1 mg/kg, route intravenous; settings: in vivo
CYP3A4 = CYP3A4 (Homo sapiens, UniProt P08684); experiment: Inhibition of CYP3A4 at 10 uM; format: ADME
CYP2C9 = CYP2C9 (Homo sapiens, UniProt P11712); experiment: Inhibition of CYP2C9 at 10 uM; format: ADME
[6] = target: Voltage-gated inwardly rectifying potassium channel KCNH2 (Homo sapiens, UniProt Q12809); experiment: Inhibition of human hERG
[7] = Metabolic stability in rat hepatocytes assessed as half life; format: ADME, cell-based, Liver, Hepatocyte
[8] = Bioavailability in rat at 1 mg/kg, iv; format: ADME, organism-based; settings: in vivo
[9] = Half life in rat at 1 mg/kg, iv; format: ADME, organism-based; parameters: dose 1 mg/kg, route intravenous; settings: in vivo

Chain of CYP2C9 (P11712 whole entry): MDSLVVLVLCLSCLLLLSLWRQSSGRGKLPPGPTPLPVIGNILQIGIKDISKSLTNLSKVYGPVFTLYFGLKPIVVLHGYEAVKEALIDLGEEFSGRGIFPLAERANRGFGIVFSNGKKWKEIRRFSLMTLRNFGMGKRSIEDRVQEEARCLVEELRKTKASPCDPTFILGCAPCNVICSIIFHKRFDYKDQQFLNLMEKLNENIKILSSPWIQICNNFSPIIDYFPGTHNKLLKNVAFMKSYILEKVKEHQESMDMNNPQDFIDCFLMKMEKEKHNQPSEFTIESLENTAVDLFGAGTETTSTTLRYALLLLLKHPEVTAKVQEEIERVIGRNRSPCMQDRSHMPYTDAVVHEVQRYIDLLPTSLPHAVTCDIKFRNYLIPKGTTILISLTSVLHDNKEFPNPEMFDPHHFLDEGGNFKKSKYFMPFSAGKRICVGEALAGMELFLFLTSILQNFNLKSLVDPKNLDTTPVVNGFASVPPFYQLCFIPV
Chain of CYP3A4 (P08684 whole entry): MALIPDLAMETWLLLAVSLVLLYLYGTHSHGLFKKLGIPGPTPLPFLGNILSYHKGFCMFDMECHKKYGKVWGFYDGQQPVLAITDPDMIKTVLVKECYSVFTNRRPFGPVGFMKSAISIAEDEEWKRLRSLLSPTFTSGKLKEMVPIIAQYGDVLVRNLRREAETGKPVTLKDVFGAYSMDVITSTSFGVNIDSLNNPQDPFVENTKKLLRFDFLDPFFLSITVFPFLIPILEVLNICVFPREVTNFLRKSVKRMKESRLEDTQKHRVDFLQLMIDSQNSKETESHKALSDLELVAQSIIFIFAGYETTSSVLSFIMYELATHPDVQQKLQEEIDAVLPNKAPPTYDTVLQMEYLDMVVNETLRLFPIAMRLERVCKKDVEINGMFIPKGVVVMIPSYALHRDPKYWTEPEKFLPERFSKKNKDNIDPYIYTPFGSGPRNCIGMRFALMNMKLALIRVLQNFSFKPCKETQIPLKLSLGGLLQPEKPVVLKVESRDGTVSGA
Chain of Voltage-gated inwardly rectifying potassium channel KCNH2 (Q12809 whole entry): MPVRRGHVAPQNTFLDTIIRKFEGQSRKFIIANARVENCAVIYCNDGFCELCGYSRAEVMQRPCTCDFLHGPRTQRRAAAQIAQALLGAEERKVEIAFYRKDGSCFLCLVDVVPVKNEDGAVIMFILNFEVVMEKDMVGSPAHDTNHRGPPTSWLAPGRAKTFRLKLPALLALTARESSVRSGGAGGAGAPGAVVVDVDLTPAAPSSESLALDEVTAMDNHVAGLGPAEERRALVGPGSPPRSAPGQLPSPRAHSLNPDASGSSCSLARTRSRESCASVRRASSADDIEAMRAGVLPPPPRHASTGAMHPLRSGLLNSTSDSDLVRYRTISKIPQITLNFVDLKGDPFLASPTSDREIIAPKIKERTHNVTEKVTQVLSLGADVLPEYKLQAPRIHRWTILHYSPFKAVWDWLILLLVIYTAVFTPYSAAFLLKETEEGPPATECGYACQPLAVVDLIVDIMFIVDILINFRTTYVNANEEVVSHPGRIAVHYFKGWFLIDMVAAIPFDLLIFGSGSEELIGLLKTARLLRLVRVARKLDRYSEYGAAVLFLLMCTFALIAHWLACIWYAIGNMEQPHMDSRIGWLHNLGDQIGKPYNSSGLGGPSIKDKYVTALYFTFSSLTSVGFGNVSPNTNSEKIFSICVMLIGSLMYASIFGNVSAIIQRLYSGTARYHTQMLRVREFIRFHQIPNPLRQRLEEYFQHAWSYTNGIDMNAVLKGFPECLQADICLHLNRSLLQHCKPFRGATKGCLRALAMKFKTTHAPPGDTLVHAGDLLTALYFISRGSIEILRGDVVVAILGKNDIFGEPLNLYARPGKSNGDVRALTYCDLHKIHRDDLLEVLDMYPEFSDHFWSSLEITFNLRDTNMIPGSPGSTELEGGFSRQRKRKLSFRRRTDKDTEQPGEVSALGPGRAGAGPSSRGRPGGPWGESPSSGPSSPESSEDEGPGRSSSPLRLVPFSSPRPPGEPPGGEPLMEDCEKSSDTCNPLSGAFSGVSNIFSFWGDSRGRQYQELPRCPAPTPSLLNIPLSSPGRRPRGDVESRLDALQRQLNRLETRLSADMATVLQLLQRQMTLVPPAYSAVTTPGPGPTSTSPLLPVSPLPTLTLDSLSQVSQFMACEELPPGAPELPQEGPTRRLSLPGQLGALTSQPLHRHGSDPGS
T2 sequence (O60674 whole entry): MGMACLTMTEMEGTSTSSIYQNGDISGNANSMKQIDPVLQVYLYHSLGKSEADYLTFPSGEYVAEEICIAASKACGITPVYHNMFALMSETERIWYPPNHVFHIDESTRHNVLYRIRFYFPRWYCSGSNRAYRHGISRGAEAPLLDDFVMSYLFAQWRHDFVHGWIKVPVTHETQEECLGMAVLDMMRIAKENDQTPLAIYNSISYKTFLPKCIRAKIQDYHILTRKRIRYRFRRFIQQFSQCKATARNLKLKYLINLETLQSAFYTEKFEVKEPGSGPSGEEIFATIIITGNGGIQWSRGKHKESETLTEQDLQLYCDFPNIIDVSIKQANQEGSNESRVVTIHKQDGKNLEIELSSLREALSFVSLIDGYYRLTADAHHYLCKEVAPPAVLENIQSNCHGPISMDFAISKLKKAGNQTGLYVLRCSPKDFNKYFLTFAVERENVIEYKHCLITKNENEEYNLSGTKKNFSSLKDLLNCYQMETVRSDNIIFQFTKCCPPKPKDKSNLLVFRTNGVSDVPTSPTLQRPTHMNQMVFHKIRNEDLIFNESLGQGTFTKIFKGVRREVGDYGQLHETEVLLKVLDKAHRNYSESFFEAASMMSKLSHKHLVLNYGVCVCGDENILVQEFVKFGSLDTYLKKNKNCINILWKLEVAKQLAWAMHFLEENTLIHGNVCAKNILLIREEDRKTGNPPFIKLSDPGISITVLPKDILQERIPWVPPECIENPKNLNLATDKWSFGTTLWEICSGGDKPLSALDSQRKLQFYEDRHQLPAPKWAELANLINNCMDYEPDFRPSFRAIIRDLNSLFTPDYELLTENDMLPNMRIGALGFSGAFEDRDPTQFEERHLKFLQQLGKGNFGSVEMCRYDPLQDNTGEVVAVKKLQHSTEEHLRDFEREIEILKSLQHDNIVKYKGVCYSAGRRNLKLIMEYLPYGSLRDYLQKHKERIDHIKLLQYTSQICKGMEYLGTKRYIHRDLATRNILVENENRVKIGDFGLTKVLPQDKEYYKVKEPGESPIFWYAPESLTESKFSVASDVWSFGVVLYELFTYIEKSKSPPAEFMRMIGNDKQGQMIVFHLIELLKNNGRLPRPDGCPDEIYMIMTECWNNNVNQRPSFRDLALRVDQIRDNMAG

| Ratio IC50 [1] | IC50 [2] | IC50 [3] | IC50 [4] | Compound | also measured |
| --- | --- | --- | --- | --- | --- |
| > 50 | 170 nM | 2 nM | 45 nM | CCC(Nc1ncc(C(N)=O)c2[nH]c3cc(-c4cnn(C)c4)ccc3c12)C1CC1 (stereo not given) | – |
| > 50 | – | 23 nM | – | NC(=O)c1cnc(NC2CCCCC2)c2c1[nH]c1cc(Cl)ccc12 | – |
| > 50 | – | 100 nM | – | CC(C)Nc1ncc(C(N)=O)c2[nH]c3ccc(F)cc3c12 | – |
| > 50 | – | 17 nM | – | NC(=O)c1cnc(NC2CCCCC2)c2c1[nH]c1ccc(F)cc12 | – |
| – | 1900 nM | 9 nM | 530 nM | Cn1cc(-c2ccc3c(c2)[nH]c2c(C(N)=O)cnc(N[C@@H](C4CC4)C(F)(F)F)c23)cn1 | – |
| > 50 | – | 10 nM | – | C[C@H](Nc1ncc(C(N)=O)c2[nH]c3cc(-c4ccc(N)nn4)ccc3c12)C(C)(C)C | – |
| > 50 | 210 nM | 3 nM | 95 nM | CC(C)C(Nc1ncc(C(N)=O)c2[nH]c3cc(-c4cnn(C)c4)ccc3c12)C1CC1 (stereo not given) | – |
| > 50 | – | 70 nM | – | NC(=O)c1cnc(NC2CCCCC2)c2c1[nH]c1cc(-c3ccccc3)ccc12 | – |
| – | 220 nM | 3 nM | 40 nM | NC(=O)c1cnc(NC(C2CC2)C2CC2)c2c1[nH]c1cc(-c3cn[nH]c3)ccc12 | clearance [5]: 31 mL/min/kg; inhibition at 10 µM (CYP3A4): 66%; inhibition at 10 µM (CYP2C9): 80% |
| > 50 | – | 190 nM | – | NC(=O)c1cnc(N2CCCCC2)c2c1[nH]c1ccc(F)cc12 | – |
| – | 220 nM | 1 nM | 32 nM | NC(=O)c1cnc(N[C@H](C2CC2)C(F)(F)F)c2c1[nH]c1cc(-c3cn[nH]c3)ccc12 | clearance [5]: 21 mL/min/kg; inhibition at 10 µM (CYP3A4): 68%; inhibition at 10 µM (CYP2C9): 61% |
| > 50 | – | 68 nM | – | CCCNc1ncc(C(N)=O)c2[nH]c3ccc(F)cc3c12 | – |
| > 50 | – | – | – | NC(=O)c1cnc(NC2CCCCC2)c2c1[nH]c1cc(-c3ccn[nH]3)ccc12 | – |
| > 50 | 640 nM | 4 nM | 100 nM | NC(=O)c1cnc(NC(C2CC2)C2CC2)c2c1[nH]c1cc(-c3cnc(N)cn3)ccc12 | IC50 [6]: 720 nM; inhibition at 10 µM (CYP3A4): 65%; inhibition at 10 µM (CYP2C9): 46% |
| > 50 | – | 13 nM | – | NC(=O)c1cnc(NC2CCCCC2)c2c1[nH]c1cc(-c3cn[nH]c3)ccc12 | – |
| > 50 | 1700 nM | 12 nM | 350 nM | Cn1cc(-c2ccc3c(c2)[nH]c2c(C(N)=O)cnc(N[C@H](C4CCC4)C(F)(F)F)c23)cn1 | – |
| > 50 | – | 12 nM | – | C[C@H](Nc1ncc(C(N)=O)c2[nH]c3cc(-c4ccnc(N)n4)ccc3c12)C(C)(C)C | – |
| > 50 | 430 nM | 8 nM | 530 nM | NC(=O)c1cnc(N[C@H](C2CC2)C(F)(F)F)c2c1[nH]c1cc(-c3cnc(N4CCOCC4)nc3)ccc12 | clearance [5]: 15 mL/min/kg |
| > 50 | – | 230 nM | – | NC(=O)c1cnc(N2CCCC2)c2c1[nH]c1ccc(F)cc12 | – |
| > 50 | 220 nM | 1 nM | 29 nM | NC(=O)c1cnc(NC(C2CC2)C2CC2)c2c1[nH]c1cc(-c3cnc(N)nc3)ccc12 | IC50 [6]: 8200 nM; clearance [5]: 21 mL/min/kg; inhibition at 10 µM (CYP3A4): 55%; inhibition at 10 µM (CYP2C9): 35% |
| > 50 | – | 52 nM | – | C[C@H](Nc1ncc(C(N)=O)c2[nH]c3ccc(F)cc3c12)C(C)(C)C | – |
| > 50 | – | 19 nM | – | NC(=O)c1cnc(NC2CCCCCC2)c2c1[nH]c1ccc(F)cc12 | – |
| > 50 | 350 nM | 5 nM | 370 nM | C[C@H](Nc1ncc(C(N)=O)c2[nH]c3cc(-c4cnn(C)c4)ccc3c12)C(C)(C)C | IC50 [6]: 29000 nM; inhibition at 10 µM (CYP3A4): 49%; half-life [7]: 0.25 h |
| > 50 | 560 nM | 3 nM | – | CC(C)[C@@H](Nc1ncc(C(N)=O)c2[nH]c3cc(-c4cnn(C)c4)ccc3c12)C(F)(F)F | – |

| Ratio IC50 [1] | IC50 [2] | IC50 [3] | IC50 [4] | Compound | also measured |
| --- | --- | --- | --- | --- | --- |
| – | 230 nM | 0.4 nM | 41 nM | Cn1cc(-c2ccc3c(c2)[nH]c2c(C(N)=O)cnc(N[C@H](C4CC4)C(F)(F)F)c23)cn1 | bioavailability [8]: 65%; half-life [9]: 4.1 h; clearance [5]: 14 mL/min/kg; inhibition at 10 µM (CYP3A4): 48%; inhibition at 10 µM (CYP2C9): 66% |
| > 50 | 160 nM | 2 nM | 120 nM | NC(=O)c1cnc(N[C@H](C2CC2)C(F)(F)F)c2c1[nH]c1cc(-c3ccc(N4CCS(=O)(=O)CC4)nn3)ccc12 | clearance [5]: 54 mL/min/kg |
| > 50 | 140 nM | 1 nM | 14 nM | C[C@H](Nc1ncc(C(N)=O)c2[nH]c3cc(-c4cnn(C)c4)ccc3c12)C1CC1 | half-life [9]: 1 h; clearance [5]: 44 mL/min/kg; half-life [7]: 1.02 h |
| > 50 | 270 nM | 2 nM | 28 nM | NC(=O)c1cnc(NC(C2CC2)C2CC2)c2c1[nH]c1cc(-c3cccnn3)ccc12 | – |
| > 50 | – | 13 nM | – | Cn1cc(-c2ccc3[nH]c4c(C(N)=O)cnc(NC5CCCCC5)c4c3c2)cn1 | – |
| > 50 | – | 74 nM | – | CC(C)CNc1ncc(C(N)=O)c2[nH]c3ccc(F)cc3c12 | – |
| > 50 | – | 180 nM | – | NC(=O)c1cnc(NC2CCCCC2)c2c1[nH]c1ccc(-c3ccccc3)cc12 | – |
| > 50 | 280 nM | 2 nM | 130 nM | Cn1cc(-c2ccc3c(c2)[nH]c2c(C(N)=O)cnc(NC(C4CC4)C4CC4)c23)cn1 | IC50 [6]: 1700 nM; half-life [9]: 3.2 h; clearance [5]: 22 mL/min/kg; inhibition at 10 µM (CYP3A4): 62%; inhibition at 10 µM (CYP2C9): 80% |
| > 50 | – | 59 nM | – | NC(=O)c1cnc(NC2CCCCC2)c2c1[nH]c1ccccc12 | – |
| > 50 | – | 2700 nM | – | CCN(c1ncc(C(N)=O)c2[nH]c3ccc(F)cc3c12)C1CCCCC1 | – |
| > 50 | – | 83 nM | – | NC(=O)c1cnc(NC2CCC2)c2c1[nH]c1ccc(F)cc12 | – |
| > 50 | – | 18 nM | – | NC(=O)c1cnc(NC2CCOCC2)c2c1[nH]c1ccc(F)cc12 | – |
| > 50 | – | 51 nM | – | NC(=O)c1cnc(NC2CCCC2)c2c1[nH]c1ccc(F)cc12 | – |
| > 50 | – | 41 nM | – | CC(C)Cn1cc(-c2ccc3c(c2)[nH]c2c(C(N)=O)cnc(N[C@@H](C)C(C)(C)C)c23)cn1 | – |
| > 50 | – | 210 nM | – | CNc1ncc(C(N)=O)c2[nH]c3ccc(F)cc3c12 | – |
| > 50 | 370 nM | 2 nM | 61 nM | NC(=O)c1cnc(N[C@H](C2CC2)C(F)(F)F)c2c1[nH]c1cc(-c3ccc(N)nc3)ccc12 | IC50 [6]: 750 nM; clearance [5]: 6 mL/min/kg; inhibition at 10 µM (CYP3A4): 65%; inhibition at 10 µM (CYP2C9): 41% |
| > 50 | – | 49 nM | – | CCCCNc1ncc(C(N)=O)c2[nH]c3ccc(F)cc3c12 | – |
| > 50 | – | 14 nM | – | C[C@H](Nc1ncc(C(N)=O)c2[nH]c3cc(-c4ccc(Cl)nn4)ccc3c12)C(C)(C)C | – |
| > 50 | 740 nM | 11 nM | 79 nM | C[C@@H](Nc1ncc(C(N)=O)c2[nH]c3cc(-c4cnn(C)c4)ccc3c12)C1CC1 | – |
| > 50 | – | 5 nM | – | Cn1cc(-c2ccc3c(c2)[nH]c2c(C(N)=O)cnc(NC4CCCCC4)c23)cn1 | IC50 [6]: 620 nM; inhibition at 10 µM (CYP3A4): 75% |
| > 50 | – | 210 nM | – | C[C@@H](Nc1ncc(C(N)=O)c2[nH]c3ccc(F)cc3c12)C(C)(C)C | – |
| – | – | 23 nM | – | NC(=O)c1cnc(NC2CCCCC2)c2c1[nH]c1cc(-c3cc[nH]n3)ccc12 | – |
| > 50 | – | 110 nM | – | NC(=O)c1cnc(NC2CCCCC2)c2c1[nH]c1cccc(Cl)c12 | – |
